Measurements: patent publication US12012392B2, “Sulfonamide carboxamide compounds” (Inflazome Limited, priority 2017, dated 2024)

Experiments:
NLRP3 [1] = biological target: T1, NLRP3 (Homo sapiens, UniProt Q96P20); test: Human whole blood IL1β release assay; assay type: cell-based; design: Plate out 80 μl of whole blood containing 1 μg/ml of LPS; from tissue; host or cells: human whole blood from healthy donors, LPS-primed, nigericin-stimulated; details: LPS 1 μg/ml, nigericin 10 μM, IL-1β AlphaLisa, read-out: HWB IC50
T1 sequence (Q96P20 whole entry): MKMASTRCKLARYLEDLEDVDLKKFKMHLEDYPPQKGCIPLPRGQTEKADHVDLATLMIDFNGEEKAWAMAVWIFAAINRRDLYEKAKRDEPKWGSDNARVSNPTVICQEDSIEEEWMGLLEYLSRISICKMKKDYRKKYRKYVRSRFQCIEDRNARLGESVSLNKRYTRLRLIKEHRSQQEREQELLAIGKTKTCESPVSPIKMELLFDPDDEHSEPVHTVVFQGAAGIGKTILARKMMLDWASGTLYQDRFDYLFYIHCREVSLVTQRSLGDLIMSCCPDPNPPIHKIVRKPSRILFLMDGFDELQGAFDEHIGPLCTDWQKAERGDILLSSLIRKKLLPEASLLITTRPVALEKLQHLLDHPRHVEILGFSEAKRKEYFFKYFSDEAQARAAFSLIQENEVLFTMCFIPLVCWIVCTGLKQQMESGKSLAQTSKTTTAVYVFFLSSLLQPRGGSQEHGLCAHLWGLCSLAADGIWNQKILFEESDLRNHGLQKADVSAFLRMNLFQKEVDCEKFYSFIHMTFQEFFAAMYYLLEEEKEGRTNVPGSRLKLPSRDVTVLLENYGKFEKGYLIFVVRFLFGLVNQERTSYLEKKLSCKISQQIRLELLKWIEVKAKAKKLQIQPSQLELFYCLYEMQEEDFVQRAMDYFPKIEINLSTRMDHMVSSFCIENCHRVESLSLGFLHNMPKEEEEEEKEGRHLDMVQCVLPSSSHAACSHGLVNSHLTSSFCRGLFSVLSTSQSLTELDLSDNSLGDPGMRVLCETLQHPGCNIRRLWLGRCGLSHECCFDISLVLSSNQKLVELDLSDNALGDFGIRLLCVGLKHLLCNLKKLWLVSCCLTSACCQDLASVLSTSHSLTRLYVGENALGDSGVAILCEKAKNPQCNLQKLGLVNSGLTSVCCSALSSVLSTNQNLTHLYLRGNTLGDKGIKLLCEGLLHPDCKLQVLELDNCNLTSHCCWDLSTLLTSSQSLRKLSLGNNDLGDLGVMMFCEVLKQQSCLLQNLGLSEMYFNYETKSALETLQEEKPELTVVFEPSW
Method: For systemic delivery, the ability to inhibit NLRP3 when the compounds are present within the bloodstream is of great importance. For this reason, the NLRP3 inhibitory activity of a number of compounds in human whole blood was investigated in accordance with the following protocol.
Human whole blood in Li-heparin tubes was obtained from healthy donors from a volunteer donor panel. • 1. Plate out 80 μl of whole blood containing 1 μg/ml of LPS in 96-well, clear bottom cell culture plate (Corning #3585) • 2. Add […] compound (8 points half-log dilution with 10 μM top dose) or vehicle (DMSO 0.1% FAC) to the appropriate wells • 3. Incubate for 3 hrs at 37° C., 5% CO2 • 4. Add 10 μl Nigericin (Sigma #N7143) (10 μM FAC) to all wells • 5. Incubate for 1 hr at 37° C., 5 CO2 • 6. At the end of the incubation period, spin plates at 300×g for 5 mins to pellet cells and remove 20 μl of supernatant and add to 96-well v-bottom plates for […] analysis (note: these plates containing the supernatants can be stored at −80° C. to be analysed at a later date) • 7. IL-1β was measured according to the manufacturer protocol (Perkin Elmer-AlphaLisa IL-1 Kit AL220F-5000) • 8. IC50 data is fitted to anon-linear regression equation (log inhibitor vs response-variable slope 4-parameters)

NLRP3 [2] = biological target: T1, NLRP3; test: THP-1 cells pyroptosis assay; assay type: cell-based; design: Seed THP-1 cells (25,000 cells/well) containing 1.0 μg/ml LPS; host or cells: THP-1 cells, LPS-primed, nigericin-stimulated; details: LPS 1 μg/ml, nigericin 5 μM, resazurin read-out
Method: THP-1 cells (ATCC #TIB-202) were grown in RPMI containing L-glutamine (Gibco #11835) supplemented with 1 mM sodium pyruvate (Sigma #S8636) and penicillin (100 units/ml)/streptomycin (0.1 mg/ml) (Sigma #P4333) in 10% Fetal Bovine Serum (FBS) (Sigma #F0804). The cells were routinely passaged and grown to confluency (˜10^6 cells/ml). On the day of the experiment, THP-1 cells were harvested and resuspended into RPMI medium (without FBS). The cells were then counted and viability (>90%) checked by Trypan blue (Sigma #T8154). Appropriate dilutions were made to give a concentration of 625,000 cells/ml. To this diluted cell solution was added LPS (Sigma #L4524) to give a 1 μg/ml Final Assay Concentration (FAC). 40 μl of the final preparation was aliquoted into each well of a 96-well plate. The plate thus prepared was used for compound screening.
The following method step-by-step assay was followed for compound screening. • 1. Seed THP-1 cells (25,000 cells/well) containing 1.0 μg/ml LPS in 40 μl of RPMI medium (without FBS) in 96-well, black walled, clear bottom cell culture plates coated with poly-D-lysine (VWR #734-0317) • 2. Add 5 μl compound (8 points half-log dilution, with 10 μM top dose) or vehicle (DMSO 0.1% FAC) to the appropriate wells • 3. Incubate for 3 hrs at 37° C. and 5% CO2 • 4. Add 5 μl nigericin (Sigma #N7143) (FAC 5 μM) to all wells • 5. Incubate for 1 hr at 37° C. and 5% CO2 • 6. At the end of the incubation period, spin plates at 300×g for 3 mins and remove supernatant • 7. Then add 50 μl of resazurin (Sigma #R7017) (FAC 100 μM resazurin in RPMI medium without FBS) and incubate plates for a further 1-2 hrs at 37° C. and 5% CO2 • 8. Plates were read in an Envision reader at Ex 560 nm and Em 590 nm • 9. IC50 data is fitted to a non-linear regression equation (log inhibitor vs response-variable slope 4-parameters) 96-Well Plate Map

| IC50 (NLRP3 [1]) [nM] | IC50 (NLRP3 [2]) [nM] | SMILES |
| --- | --- | --- |
| 3200 to 10000 | 640 to 2560 | CC(C)c1cc(Cl)cc(C(C)C)c1NC(=O)NS(=O)(=O)c1ccn(C2CCOCC2)n1 [Example 32, N-((4-Chloro-2,6-diisopropylphenyl)carbamoyl)-1-(tetrahydro-2H-pyran-4-yl)-1H-pyrazole-3-sulfonamide] |
| 800 to 1600 | 160 to 640 | Cn1nc(S(=O)(=O)NC(=O)Nc2c3c(cc4c2CCC4)CCC3)cc1C1(O)CCOCC1 [Example 55, N-((1,2,3,5,6,7-Hexahydro-s-indacen-4-yl)carbamoyl)-5-(4-hydroxytetrahydro-2H-pyran-4-yl)-1-methyl-1H-pyrazole-3-sulfonamide] |
| 400 to 800 | 40 to 160 | O=C(Nc1c2c(cc3c1CCC3)CCC2)NS(=O)(=O)c1ccn(CCCO)n1 [Example 7, N-((1,2,3,5,6,7-Hexahydro-s-indacen-4-yl)carbamoyl)-1-(3-hydroxypropyl)-1H-pyrazole-3-sulfonamide] |
| 800 to 1600 | 160 to 640 | COC1(c2cc(S(=O)(=O)NC(=O)Nc3c(-c4cccnc4)cc(F)c4c3CCC4)nn2C)COC1 [Example 35, N-((7-Fluoro-5-(pyridin-3-yl)-2,3-dihydro-1H-inden-4-yl)carbamoyl)-5-(3-methoxyoxetan-3-yl)-1-methyl-1H-pyrazole-3-sulfonamide] |
| 1600 to 3200 | 640 to 2560 | CC(C)c1cc(F)cc(C(C)C)c1NC(=O)NS(=O)(=O)c1ccn(CC(C)(C)O)n1 [Example 18, N-((4-Fluoro-2,6-diisopropylphenyl)carbamoyl)-1-(2-hydroxy-2-methylpropyl)-1H-pyrazole-3-sulfonamide] |
| < 400 | < 40 | COc1cc(-c2ccc3c(c2NC(=O)NS(=O)(=O)c2cc(C4(OC)COC4)n(C)n2)CCC3)ccn1 [Example 98] |
| 800 to 1600 | 40 to 160 | O=C(Nc1c2c(cc3c1CCC3)CCC2)NS(=O)(=O)c1ccn(CC2CCCO2)n1 (single isomer, unassigned) [Example 5] |
| 800 to 1600 | 40 to 160 | Cn1nc(S(=O)(=O)NC(=O)Nc2c3c(cc4c2CCC4)CCC3)cc1CC(C)(C)O [Example 50, N-((1,2,3,5,6,7-Hexahydro-s-indacen-4-yl)carbamoyl)-5-(2-hydroxy-2-methylpropyl)-1-methyl-1H-pyrazole-3-sulfonamide] |
| < 400 | < 40 | COc1cc(-c2ccc3c(c2NC(=O)NS(=O)(=O)c2ccn(C(C)(C)CN4CC(OC)C4)n2)CCC3)ccn1 [Example 90] |
| 800 to 1600 | 160 to 640 | CCN(CCO)C(=O)c1cc(S(=O)(=O)NC(=O)Nc2c3c(cc4c2CCC4)CCC3)nn1C [Example 66, N-Ethyl-3-(N-((1,2,3,5,6,7-hexahydro-s-indacen-4-yl)carbamoyl)sulfamoyl)-N-(2-hydroxyethyl)-1-methyl-1H-pyrazole-5-carboxamide] |
| 1600 to 3200 | 160 to 640 | CN(CCCO)C(=O)c1cc(S(=O)(=O)NC(=O)Nc2c3c(cc4c2CCC4)CCC3)nn1C [Example 64, 3-(N-((1,2,3,5,6,7-Hexahydro-s-indacen-4-yl)carbamoyl)sulfamoyl)-N-(3-hydroxypropyl)-N,1-dimethyl-1H-pyrazole-5-carboxamide] |
| 3200 to 10000 | 640 to 2560 | CC(C)c1cc(Cl)cc(C(C)C)c1NC(=O)NS(=O)(=O)c1ccn(CC(C)(C)O)n1 [Example 19, N-((4-Chloro-2,6-diisopropylphenyl)carbamoyl)-1-(2-hydroxy-2-methylpropyl)-1H-pyrazole-3-sulfonamide] |
| 800 to 1600 | 160 to 640 | C[C@@H](O)Cn1ncc(S(=O)(=O)NC(=O)Nc2c3c(cc4c2CCC4)CCC3)n1 [Example 33, (R)—N-((1,2,3,5,6,7-Hexahydro-s-indacen-4-yl)carbamoyl)-2-(2-hydroxypropyl)-2H-1,2,3-triazole-4-sulfonamide] |
| 400 to 800 | < 40 | COC(C)(C)Cn1ccc(S(=O)(=O)NC(=O)Nc2c3c(cc4c2CCC4)CCC3)n1 [Example 14, N-((1,2,3,5,6,7-Hexahydro-s-indacen-4-yl)carbamoyl)-1-(2-methoxy-2-methylpropyl)-1H-pyrazole-3-sulfonamide] |
| < 400 | 160 to 640 | COc1cc(-c2cc(F)cc(C(C)C)c2NC(=O)NS(=O)(=O)c2cc(C3(OC)COC3)n(C)n2)ccn1 [Example 40, N-((4-Fluoro-2-isopropyl-6-(2-methoxypyridin-4-yl)phenyl)carbamoyl)-5-(3-methoxyoxetan-3-yl)-1-methyl-1H-pyrazole-3-sulfonamide] |
| 800 to 1600 | 160 to 640 | CC[C@@H](O)Cn1ccc(S(=O)(=O)NC(=O)Nc2c3c(cc4c2CCC4)CCC3)n1 [Example 25, (R)—N-((1,2,3,5,6,7-Hexahydro-s-indacen-4-yl)carbamoyl)-1-(2-hydroxybutyl)-1H-pyrazole-3-sulfonamide] |
| 800 to 1600 | 160 to 640 | O=C(Nc1c2c(cc3c1CCC3)CCC2)NS(=O)(=O)c1ccn(C2COC2)n1 [Example 12, N-((1,2,3,5,6,7-Hexahydro-s-indacen-4-yl)carbamoyl)-1-(oxetan-3-yl)-1H-pyrazole-3-sulfonamide] |
| 800 to 1600 | 160 to 640 | Cn1nc(S(=O)(=O)NC(=O)Nc2c3c(cc4c2CCC4)CCC3)cc1C1(F)COC1 [Example 49, 5-(3-Fluorooxetan-3-yl)-N-((1,2,3,5,6,7-hexahydro-s-indacen-4-yl)carbamoyl)-1-methyl-1H-pyrazole-3-sulfonamide] |
| 800 to 1600 | 160 to 640 | O=C(Nc1c2c(cc3c1CCC3)CCC2)NS(=O)(=O)c1ccn(C2CC(O)C2)n1 (stereo not drawn) [Example 34, N-((1,2,3,5,6,7-Hexahydro-s-indacen-4-yl)carbamoyl)-1-(3-hydroxycyclobutyl)-1H-pyrazole-3-sulfonamide] |
| 800 to 1600 | 160 to 640 | C[C@@H](O)Cn1cc(S(=O)(=O)NC(=O)Nc2c3c(cc4c2CCC4)CCC3)nn1 [Example 103] |
| < 400 | < 40 | N#Cc1cc(-c2ccc3c(c2NC(=O)NS(=O)(=O)c2ccn(C4CCOC4)n2)CCC3)ccn1 (stereo not drawn) [Example 91] |
| < 400 | < 40 | COc1cc(-c2ccc3c(c2NC(=O)NS(=O)(=O)c2ccn(CC(C)(C)OC)n2)CCC3)ccn1 [Example 95] |
| < 400 | 160 to 640 | CC(C)c1cc(F)cc(-c2cccnc2)c1NC(=O)NS(=O)(=O)c1ccn(C[C@@H](C)O)n1 [Example 37, (R)—N-((4-Fluoro-2-isopropyl-6-(pyridin-3-yl)phenyl)carbamoyl)-1-(2-hydroxypropyl)-1H-pyrazole-3-sulfonamide] |
| 400 to 800 | 40 to 160 | O=C(Nc1c2c(cc3c1CCC3)CCC2)NS(=O)(=O)c1ccn(C2CCCC2O)n1 (racemic) [Example 22, N-((1,2,3,5,6,7-Hexahydro-s-indacen-4-yl)carbamoyl)-1-(2-hydroxycyclopentyl)-1H-pyrazole-1-sulfonamide] |
| < 400 | < 40 | COc1cc(-c2ccc3c(c2NC(=O)NS(=O)(=O)c2ccn(C[C@@H](C)O)n2)CCC3)ccn1 [Example 94] |
| < 400 | < 40 | COc1cc(-c2ccc3c(c2NC(=O)NS(=O)(=O)c2ccn(CC(C)(C)O)n2)CCC3)ccn1 [Example 96] |
| 800 to 1600 | 40 to 160 | COC1CN(CC(C)(C)n2ccc(S(=O)(=O)NC(=O)Nc3c4c(cc5c3CCC5)CCC4)n2)C1 [Example 107] |
